Reference: publication PMC5485171 (Diabetes, Obesity & Metabolism, 2017)

Tested on: patients with type 2 diabetes
Experiment: Adverse events
Assay type: in vivo, human
[1] = 28 weeks, as‐treated, number (%) of patients, n = 181 / 122
[2] = 28 weeks, most common AEs (≥5% of patients)

N[C@@H](CC(=O)N1CCn2c(nnc2C(F)(F)F)C1)Cc1cc(F)c(F)cc1F [Sitagliptin, sitagliptin]
symptoms of hypoglycaemia, number of recipients (28 weeks): 7 recipients
AEs leading to withdrawal [1]: 0 (0.0) n (%)
Cardiovascular events (adjudicated) [1]: 0 (0.0) n (%)
Gastrointestinal AEs [1]: 9 (7.4) n (%)
Gastrointestinal AEs: Diarrhea [1]: 2 (1.6) n (%)
Gastrointestinal AEs: Dyspepsia [1]: 1 (0.8) n (%)
Gastrointestinal AEs: Nausea [1]: 2 (1.6) n (%)
Gastrointestinal AEs: Vomiting [1]: 0 (0.0) n (%)
Hypoglycaemia: Major [1]: 0 (0.0) n (%)
Injection‐site‐related AEs [1]: 0 (0.0) n (%)
Injection‐site‐related AEs: Bruising [1]: 0 (0.0) n (%)
Injection‐site‐related AEs: Induration [1]: 0 (0.0) n (%)
Injection‐site‐related AEs: Nodules [1]: 0 (0.0) n (%)
Injection‐site‐related AEs: Pruritus [1]: 0 (0.0) n (%)
Pancreatic cancer (adjudicated) [1]: 0 (0.0) n (%)
Pancreatitis (adjudicated) [1]: 0 (0.0) n (%)
Renal failure [1]: 0 (0.0) n (%)
Serious AEs [1]: 0 (0.0) n (%)
Symptoms of hypoglycaemia [1]: 7 (5.7) n (%)
Thyroid neoplasms (adjudicated) [1]: 0 (0.0) n (%)
nasopharyngitis, proportion of patients [2]: 0.0%
nausea, proportion of patients [2]: 1.6%
Hypoglycaemia: Minor (28 weeks, symptoms and glucose <54 mg/dL, number (%) of patients, n = 181 / 122): 1 (0.8) n (%)
AEs reported, proportion of recipients (28‐week treatment period): 32.8%
Any AE (28‐week treatment period, as‐treated, exenatide 2.0 mg QW sc (n = 181), sitagliptin 100 mg once daily oral (n = 122), number (%) of patients): 40 (32.8) n (%)
